The first experiment has as its target recombinant human MGAT2 (Homo sapiens (Human), UniProt Q3SYC2). Description: Measurement of human MGAT2 inhibitory activity. Particulars: concentration exhibiting 50% enzyme inhibition; recombinant human MGAT2, 2-Oleoylglycerol/Oleoyl-CoA. It counts as biochemical. How it is done:
A full-length human MGAT2 gene to which a Flag-tag had been added at the N-terminal was inserted into pFastBac (from Invitrogen). A recombinant baculovirus was produced in accordance with the protocol for a Bac-to-Bac baculovirus expression system (produced by Invitrogen), and Sf-9 cells were infected therewith. The cells were collected and sonicated, and then the membrane fraction was collected through centrifugation. Western blotting analysis with an anti-Flag antibody was performed for the membrane fraction to confirm expression, and the membrane fraction was used as a recombinant human MGAT2 enzyme solution.
Solutions of the compounds of the present invention in DMSO were each aliquoted into 0.2-μL portions in a 384-well polystyrene microplate produced by Corning Incorporated, and 5 μL of an enzyme solution prepared with an assay buffer (100 mmol/L phosphate buffer (pH 7.4) containing 2 mmol/L DTT) and 5 μL of a substrate solution (100 mmol/L phosphate buffer (pH 7.4), 30 μmol/L 2-Oleoylglycerol, 10 μmol/L Oleoyl-CoA) were added thereto, and the resultant was stirred and centrifuged, and incubated in a moist chamber at room temperature for 1 hour. After enzymatic reaction, 50 μL of a quenching solution (containing 0.2 μmol/L Diolein-d5, 0.4% formic acid, and 50% isopropanol) containing Internal Standard (IS) was added to terminate the reaction, and the resultant was sealed in a plate produced by Shimadzu GLC Ltd., and then stirred and centrifuged, and measurement was performed by using an electrospray ionization method with a RapidFire360 and Agilent 6550 Q-TOF mass spectrometer. Diolein as a reaction product (P) of 2-Oleoylglycerol as the substrate and an ammonium adduct ion of the IS were detected, and the peak intensity ratio, P/IS, was calculated from the peak heights to evaluate the inhibitory activity. Inhibitory activities with/without addition of enzyme were defined as Control (+)/Control (−), respectively, and the respective % inhibitions were defined as 0% inhibition and 100% inhibition. The inhibitory activity was calculated from formula below with TIBCO Spotfire (produced by TIBCO Software Inc.)
Inhibitory activity (%)=[1−{Sample−Control (−)}/{Control (+)−Control (−)}]*100 where Sample indicates a peak intensity ratio: P/IS, when the compound of the present invention was added.
Sequence of recombinant human MGAT2 (Q3SYC2 whole entry): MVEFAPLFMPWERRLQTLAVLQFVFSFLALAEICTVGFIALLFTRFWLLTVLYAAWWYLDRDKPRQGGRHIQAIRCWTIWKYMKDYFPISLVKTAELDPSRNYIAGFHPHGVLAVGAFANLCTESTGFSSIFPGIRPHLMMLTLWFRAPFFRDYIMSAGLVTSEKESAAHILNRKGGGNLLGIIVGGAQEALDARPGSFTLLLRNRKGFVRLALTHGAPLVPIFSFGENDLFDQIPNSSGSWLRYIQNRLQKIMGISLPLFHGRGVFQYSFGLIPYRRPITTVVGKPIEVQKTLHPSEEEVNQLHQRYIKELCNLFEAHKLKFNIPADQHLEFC
For the compound `C[S@@](=N)(=O)CC(=O)Nc1c(-c2ccc(F)c(Cl)c2)nn2c1C(=O)N[C@@]1(CCc3cc(OCC(F)(F)F)ccc31)C2` (single isomer, unassigned) [Compound I-72], the IC50 amounted to 6.43 nM. For the compound `C[S@](=N)(=O)CC(=O)Nc1c(-c2cc(F)c(F)c(F)c2)nn2c1C(=O)N[C@@]1(CCc3cc(OCC(F)(F)F)ccc31)C2` (single isomer, unassigned) [Compound I-105], the IC50 turned out to be 1.71 nM. Same read-out and setting: the same measure for `C[S@@](=N)(=O)CC(=O)Nc1c(-c2cc(F)c(F)c(F)c2)nn2c1C(=O)N[C@@]1(CCc3cc(OCC(F)(F)F)ccc31)C2` (single isomer, unassigned) [Compound I-106]: 4.95 nM. Same read-out and setting: the value for `C[S@](=N)(=O)CC(=O)Nc1c(-c2ccc(F)c(Cl)c2)nn2c1C(=O)N[C@@]1(CCc3cc(OCC(F)(F)F)ccc31)C2` (single isomer, unassigned) [Compound I-107] was 1.19 nM; that for `CS(=O)(=O)CC(=O)Nc1c(-c2ccccc2)nn2c1C(=O)N[C@@]1(CCc3cc(OCC(F)(F)F)ccc31)C2` [Compound I-1] was 14 nM.

`CS(=O)(=O)CC(=O)Nc1c(-c2ccccc2)nn2c1C(=O)N[C@]1(CCc3cc(OCC(F)(F)F)ccc31)C2` [Compound I-2]: the half-inhibitory concentration (IC50) is 6.6 nM.

Regarding `CS(=O)(=O)CC(=O)Nc1c(-c2ccc(C#N)cn2)nn2c1C(=O)N[C@]1(CCc3cc(OCC(F)(F)F)ccc31)C2` [Compound I-4], the IC50 was 1.93 nM.

Turning to `Cc1ccc(-c2nn3c(c2NC(=O)CS(C)(=O)=O)C(=O)N[C@]2(CCc4cc(OCC(F)(F)F)ccc42)C3)nc1` [Compound I-5], the half-inhibitory concentration (IC50) turned out to be 2.81 nM. Still for that read-out and setting: the value for `CS(=O)(=O)CC(=O)Nc1c(-c2ccc(C#N)cn2)nn2c1C(=O)NC1(CN(c3ccc(C(F)(F)F)cc3)C1)C2` [Compound I-7] was 3.04 nM; that for `N#Cc1ccc(-c2nn3c(c2NC(=O)c2ccno2)C(=O)N[C@]2(CCc4cc(OCC(F)(F)F)ccc42)C3)nc1` [Compound I-8] was 1.02 nM. On the same count and under the same terms, the same measure for `N#Cc1ccc(-c2nn3c(c2NC(=O)CC(F)(F)F)C(=O)N[C@]2(CCc4cc(OCC(F)(F)F)ccc42)C3)nc1` [Compound I-9]: 22.5 nM; for `N#Cc1ccc(-c2nn3c(c2NC(=O)C2CS(=O)(=O)C2)C(=O)N[C@]2(CCc4cc(OCC(F)(F)F)ccc42)C3)nc1` [Compound I-10]: 1.91 nM; for `CNS(=O)(=O)CC(=O)Nc1c(-c2ccc(C#N)cn2)nn2c1C(=O)N[C@]1(CCc3cc(OCC(F)(F)F)ccc31)C2` [Compound I-11]: 1.08 nM. Regarding `N#Cc1ccc(-c2nn3c(c2NC(=O)COC(F)(F)F)C(=O)N[C@]2(CCc4cc(OCC(F)(F)F)ccc42)C3)nc1` [Compound I-12], the IC50 was 9.48 nM.

As for `N#Cc1ccc(-c2nn3c(c2NC(=O)C2CS(=O)(=O)C2)C(=O)N[C@@]2(CCc4cc(OCC(F)(F)F)ccc42)C3)nc1` [Compound I-15], the IC50 stood at 2.56 nM. Same read-out and setting: the same measure for `CNS(=O)(=O)CC(=O)Nc1c(-c2ccc(C#N)cn2)nn2c1C(=O)N[C@@]1(CCc3cc(OCC(F)(F)F)ccc31)C2` [Compound I-16]: 1.44 nM; for `N#Cc1ccc(-c2nn3c(c2NC(=O)COC(F)(F)F)C(=O)N[C@@]2(CCc4cc(OCC(F)(F)F)ccc42)C3)nc1` [Compound I-17]: 58 nM; for `CS(=O)(=O)CC(=O)Nc1c(-c2ccccn2)nn2c1C(=O)N[C@]1(CCc3cc(OCC(F)(F)F)ccc31)C2` [Compound I-18]: 3.6 nM. Regarding `CS(=O)(=O)CC(=O)Nc1c(-c2ccccn2)nn2c1C(=O)N[C@@]1(CCc3cc(OCC(F)(F)F)ccc31)C2` [Compound I-19], the IC50 was found to be 5.19 nM. The same measure, in the same setting: the value for `Cc1cccc(-c2nn3c(c2NC(=O)CS(C)(=O)=O)C(=O)N[C@@]2(CCc4cc(OCC(F)(F)F)ccc42)C3)c1` [Compound I-21] was 3.27 nM; that for `Cc1ccccc1-c1nn2c(c1NC(=O)CS(C)(=O)=O)C(=O)N[C@@]1(CCc3cc(OCC(F)(F)F)ccc31)C2` [Compound I-22] was 93.5 nM; that for `CS(=O)(=O)CC(=O)Nc1c(-c2ccc(F)cc2)nn2c1C(=O)N[C@@]1(CCc3cc(OCC(F)(F)F)ccc31)C2` [Compound I-23] was 1.2 nM. Same read-out and setting: the value for `CS(=O)(=O)CC(=O)Nc1c(-c2ccc(C(F)F)cc2)nn2c1C(=O)N[C@@]1(CCc3cc(OCC(F)(F)F)ccc31)C2` [Compound I-24] was 1.37 nM. On the same count and under the same terms, the value for `CS(=O)(=O)CC(=O)Nc1c(-c2ccc(C(F)(F)F)cc2)nn2c1C(=O)N[C@@]1(CCc3cc(OCC(F)(F)F)ccc31)C2` [Compound I-25] was 1.33 nM. As to `COc1ccc(-c2nn3c(c2NC(=O)CS(C)(=O)=O)C(=O)N[C@@]2(CCc4cc(OCC(F)(F)F)ccc42)C3)cc1` [Compound I-26], the 50% inhibitory concentration (IC50) amounted to 20.1 nM.

Take `CS(=O)(=O)CC(=O)Nc1c(-c2ccc(OC(F)(F)F)cc2)nn2c1C(=O)N[C@@]1(CCc3cc(OCC(F)(F)F)ccc31)C2` [Compound I-27]: the concentration for half-maximal inhibition (IC50) was found to be 7.01 nM. Same read-out and setting: the same measure for `CS(=O)(=O)CC(=O)Nc1c(-c2ccc(OC(F)F)cc2)nn2c1C(=O)N[C@@]1(CCc3cc(OCC(F)(F)F)ccc31)C2` [Compound I-28]: 3.89 nM; for `CS(=O)(=O)CC(=O)Nc1c(-c2ccc(C3CC3)cc2)nn2c1C(=O)N[C@@]1(CCc3cc(OCC(F)(F)F)ccc31)C2` [Compound I-29]: 4.91 nM; for `CS(=O)(=O)CC(=O)Nc1c(-c2ccc(OC3CC3)cc2)nn2c1C(=O)N[C@@]1(CCc3cc(OCC(F)(F)F)ccc31)C2` [Compound I-30]: 193 nM. Regarding `CS(=O)(=O)CC(=O)Nc1c(-c2ccc(C#N)cc2)nn2c1C(=O)N[C@@]1(CCc3cc(OCC(F)(F)F)ccc31)C2` [Compound I-31], the half-maximal inhibitory concentration (IC50) was determined as 2.23 nM. For `Cc1cc(-c2nn3c(c2NC(=O)CS(C)(=O)=O)C(=O)N[C@@]2(CCc4cc(OCC(F)(F)F)ccc42)C3)ccc1F` [Compound I-32], the IC50 amounted to 1.19 nM. The same measure, in the same setting: the value for `Cc1ccc(-c2nn3c(c2NC(=O)CS(C)(=O)=O)C(=O)N[C@@]2(CCc4cc(OCC(F)(F)F)ccc42)C3)cc1F` [Compound I-34] was 1.36 nM; that for `Cc1cc(F)ccc1-c1nn2c(c1NC(=O)CS(C)(=O)=O)C(=O)N[C@@]1(CCc3cc(OCC(F)(F)F)ccc31)C2` [Compound I-35] was 32.2 nM; that for `CS(=O)(=O)CC(=O)Nc1c(-c2cc(F)c(F)c(F)c2)nn2c1C(=O)N[C@@]1(CCc3cc(OCC(F)(F)F)ccc31)C2` [Compound I-36] was 0.617 nM. Turning to `CC(C)(O)c1ccc(-c2nn3c(c2NC(=O)CS(C)(=O)=O)C(=O)N[C@@]2(CCc4cc(OCC(F)(F)F)ccc42)C3)cc1` [Compound I-37], the half-inhibitory concentration (IC50) was determined as 21.2 nM. Turning to `Cc1ccc(-c2nn3c(c2NC(=O)c2ccno2)C(=O)N[C@]2(CCc4cc(OCC(F)(F)F)ccc42)C3)nc1` [Compound I-38], the IC50 is 5.31 nM. As for `Cc1ccc(-c2nn3c(c2NC(=O)CC(F)(F)F)C(=O)N[C@]2(CCc4cc(OCC(F)(F)F)ccc42)C3)nc1` [Compound I-39], the IC50 is 248 nM. The same measure, in the same setting: the value for `Cc1ccc(-c2nn3c(c2NC(=O)C2CS(=O)(=O)C2)C(=O)N[C@]2(CCc4cc(OCC(F)(F)F)ccc42)C3)nc1` [Compound I-40] was 7.33 nM. With `CNS(=O)(=O)CC(=O)Nc1c(-c2ccc(C)cn2)nn2c1C(=O)N[C@]1(CCc3cc(OCC(F)(F)F)ccc31)C2` [Compound I-41], the IC50 stood at 1.04 nM. Same read-out and setting: the value for `Cc1ccc(-c2nn3c(c2NC(=O)c2ccno2)C(=O)N[C@@]2(CCc4cc(OCC(F)(F)F)ccc42)C3)nc1` [Compound I-42] was 11.3 nM; that for `Cc1ccc(-c2nn3c(c2NC(=O)CC(F)(F)F)C(=O)N[C@@]2(CCc4cc(OCC(F)(F)F)ccc42)C3)nc1` [Compound I-43] was 368 nM; that for `Cc1ccc(-c2nn3c(c2NC(=O)C2CS(=O)(=O)C2)C(=O)N[C@@]2(CCc4cc(OCC(F)(F)F)ccc42)C3)nc1` [Compound I-44] was 13.4 nM. The same measure, in the same setting: the value for `CNS(=O)(=O)CC(=O)Nc1c(-c2ccc(C)cn2)nn2c1C(=O)N[C@@]1(CCc3cc(OCC(F)(F)F)ccc31)C2` [Compound I-45] was 1.09 nM; that for `CCCCCc1nn2c(c1NC(=O)CS(C)(=O)=O)C(=O)N[C@@]1(CCc3cc(OCC(F)(F)F)ccc31)C2` [Compound I-47] was 2.73 nM.

The same experiment, now with this note: concentration exhibiting 50% enzyme inhibition; recombinant human MGAT2, 2-Oleoylglycerol/Oleoyl-CoA; listed as 1-62.
On to `CS(=O)(=O)CC(=O)Nc1c(CCCC(F)(F)F)nn2c1C(=O)NC1(CCc3cc(OCC(F)(F)F)ccc31)C2` (single isomer, unassigned) [Compound I-62], for which the IC50 was found to be 1.39 nM.

Staying with this experiment, now noted: concentration exhibiting 50% enzyme inhibition; recombinant human MGAT2, 2-Oleoylglycerol/Oleoyl-CoA; listed as 1-63.
`CS(=O)(=O)CC(=O)Nc1c(CCCC(F)(F)F)nn2c1C(=O)NC1(CCc3cc(OCC(F)(F)F)ccc31)C2` (single isomer, unassigned) [Compound I-63]: the half-inhibitory concentration (IC50) turned out to be 1.24 nM.

As a reminder, the IC50 is the concentration that gives 50% inhibition.

Source of the values: patent US12227509B2, “Dihydropyrazolopyrazinone derivative having MGAT2 inhibitory activity” (Shionogi & Co., Ltd., priority 2019, dated 2025).
